Key:
Type in all cases: cell-based
Cladosporium cucumerinum = assay: Spore germination test; settings: CC, 48 hours
Method in brief: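 Compound in acetone mixed into water agar at 40, 10, 2.5 and 1 ppm; plates seeded with spore suspension and incubated 48 hours at 24 °C. Percentage germinated spores counted and converted into a germination rating.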

Botrytis cinerea = assay: Spore germination test; settings: BC, 48 hours
Method in brief: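 Compound in acetone was mixed into water agar at final 40, 10, 2.5 and 1 ppm and poured into quadrant dishes. Quadrants received spore suspension, while Erysiphe polygoni and Uromyces phaseoli spores were brushed on from infected leaves. After 48 h at 24 °C, the percentage of germinated spores was converted to a germination rating.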

Pythium ultimum = assay: Mycelial growth test; settings: Globisporangium ultimum, 72 h, PU, read-out: Percent Fungus Growth Inhibition

## COc1cc(Oc2nsnc(Cl)c2=O)cc(OC)c1C(C)=O [Compound 61, 3-[(4-acetyl-3,5-dimethoxy)-phenoxy]-5-chloro-4H--1,2,6-thiadiazin-4-one]
Cladosporium cucumerinum; 1.0 ppm
  Spore Germination Rating: 4 (80-100)
Cladosporium cucumerinum; 2.5 ppm
  Spore Germination Rating: 0 (0-10)
Cladosporium cucumerinum; 10 ppm
  Spore Germination Rating: 0 (0-10)
Cladosporium cucumerinum; 40 ppm
  Spore Germination Rating: 0 (0-10)
Botrytis cinerea; 1.0 ppm
  Spore Germination Rating: 4 (80-100)
Botrytis cinerea; 2.5 ppm
  Spore Germination Rating: 4 (80-100)
Botrytis cinerea; 10 ppm
  Spore Germination Rating: 3 (60-80)
Botrytis cinerea; 40 ppm
  Spore Germination Rating: 2 (40-60)
Pythium ultimum; 5 ppm
  inhibition at 5 ppm: 31%
Pythium ultimum; 10 ppm
  inhibition at 10 ppm: 42%
Pythium ultimum; 20 ppm
  inhibition at 20 ppm: 100%
Pythium ultimum; 40 ppm
  inhibition at 40 ppm: 100%
